# Results published in patent US6906078B2, “Method of using (H+/K+) ATPase inhibitors as antiviral agents” (Pharmacia Corporation, priority 1994, dated 2005).
# System: not given
# Test: not given
# Conditions: not given
row,melting point,Structure (SMILES)
1,206 to 208 °C,COc1ccc(N)c(CSc2nc3ccccc3[nH]2)c1.Cl.Cl
2,87 to 89 °C,CCOc1ccc2[nH]c(SCc3ccccc3N)nc2c1.O (hydrate or solvate)
3,179 to 181 °C,"Cc1cc2nc([S+]([O-])Cc3ccccc3N)[nH]c2cc1C (stereo not shown) (hydrate or solvate) [Example 10, 2-[[(5,6-Dimethyl-1H-benzimidazol-2-yl)sulfinyl]methyl]benzenamine ¼ hydrate]"
4,152 to 153 °C,"Cc1cccc(N)c1C[S+]([O-])c1nc2ccccc2[nH]1 (stereo not shown) (hydrate or solvate) [Example 24, 2-[(1H-Benzimidazol-2-ylsulfinyl)methyl]-3-methylbenzenamine ¼ hydrate]"
5,160 °C (dec.),"Cc1ccc(C[S+]([O-])c2nc3ccccc3[nH]2)c(N)c1C (stereo not shown) (hydrate or solvate) [Example 53, 2-[(1H-Benzimidazol-2-ylsulfinyl)methyl]-5,6-dimethylbenzenamine ¼ hydrate]"
6,144 to 145 °C,"Cc1ccc(C)c(C[S+]([O-])c2nc3ccccc3[nH]2)c1N.O (stereo not shown) (hydrate or solvate) [Example 55, 2-[(1H-Benzimidazol-2-ylsulfinyl)methyl]-3,6-dimethylbenzenamine monohydrate]"
7,167 to 170 °C,"CN(C)c1ccccc1CSc1nc2ccccc2[nH]1 [Example 1, 2-[(1H-Benzimidazol-2-ylthio)methyl]-N,N-dimethylbenzenamine]"
8,125 to 127 °C,"Cc1cccc2[nH]c(SCc3ccccc3N)nc12 [Example 7, 2-[[(4-Methyl-1H-benzimidazol-2-yl)thio]methyl]benzenamine]"
9,140 to 142 °C,"COc1ccc2[nH]c(SCc3ccccc3N)nc2c1 [Example 11, 2-[[(5-methoxy-1H-benzimidazol-2-yl)thio]methyl]benzenamine]"
10,114 to 118 °C,"Nc1ccc(Cl)cc1CSc1nc2ccccc2[nH]1 [Example 15, 2-[(1H-Benzimidazol-2-ylthio)methyl]-4-chlorobenzenamine]"
11,158 to 160.5 °C,"Nc1cc(Cl)ccc1CSc1nc2ccccc2[nH]1 [Example 17, 2-[(1H-Benzimidazol-2-ylthio)methyl]-5-chlorobenzenamine]"
12,130 to 134 °C,"Cc1cccc(CSc2nc3ccccc3[nH]2)c1N [Example 27, 2-[(1H-Benzimidazol-2-ylthio)methyl]-6-methylbenzenamine]"
13,139 to 141 °C,"Cc1cc(C)c(N)c(CSc2nc3ccccc3[nH]2)c1 [Example 29, 2-[(1H-Benzimidazol-2-ylthio)methyl]-4,6-dimethylbenzenamine]"
14,109 to 112 °C,"CNc1ccccc1CSc1nc2ccccc2[nH]1 [Example 31, 2-[(1H-Benzimidazol-2-ylthio)methyl]-N-methylbenzenamine]"
15,132 to 134 °C,"COc1ccc2[nH]c(SCc3cccc(C)c3N)nc2c1 [Example 35, 2-[[(5-methoxy-1H-benzimidazol-2-yl)thio]methyl]-6-methylbenzenamine]"
16,130 to 137 °C,"Nc1ccc(C(F)(F)F)cc1CSc1nc2ccccc2[nH]1 [Example 48, 2-[(1H-Benzimidazol-2-ylthio)methyl]-4-(trifluoromethyl)benzenamine]"
17,~ 100 °C,"COc1cc(Cl)c(C)c(CSc2nc3ccccc3[nH]2)c1N [Example 58, 2-[(1H-Benzimidazol-2-ylthio)methyl]-4-chloro-6-methoxy-3-methylbenzenamine]"
18,144 to 145 °C,"CCOc1ccc2[nH]c([S+]([O-])Cc3cc(C)ccc3N)nc2c1 (stereo not shown) [Example 61, 2-[[(5-Ethoxy-1H-benzimidazol-2-yl)sulfinyl]-methyl]-4-methylbenzenamine]"
19,174 to 176 °C,"CCOC(=O)c1ccc(N)c(CSc2nc3ccccc3[nH]2)c1 [Example 70, Ethyl 4-amino-3-[(1H-benzimidazol-2-ylthio)methyl]benzoate]"
20,140 to 146 °C,"CCOC(=O)c1ccc(N)c(CSc2nc3cc(OC)ccc3[nH]2)c1 [Example 72, Ethyl 4-amino-3-[[(5-methoxy-1H-benzimidazol-2-yl)thio]methyl]benzoate]"

row,Structure (SMILES),melting point
1,"CNc1ccccc1C[S+]([O-])c1nc2ccccc2[nH]1.O (stereo not shown) (hydrate or solvate) [Example 32, 2-[(1H-Benzimidazol-2-ylsulfinyl)methyl]-N-methylbenzenamine monohydrate]",117 to 120 °C

# Biological target: T1, (H+/K+)-ATPase (Canis lupus familiaris, UniProt P50996)
# T1 construct: The microsomes retained at the 15%-30% sucrose interface, after centrifugation at 250,000×g for sixty minutes, were used as the source of (H^+/K^+)-ATPase; from tissue; host or cells: gastric glandular mucosa of mongrel dogs (microsomal fraction, lyophilized)
# T1 sequence (P50996 whole entry): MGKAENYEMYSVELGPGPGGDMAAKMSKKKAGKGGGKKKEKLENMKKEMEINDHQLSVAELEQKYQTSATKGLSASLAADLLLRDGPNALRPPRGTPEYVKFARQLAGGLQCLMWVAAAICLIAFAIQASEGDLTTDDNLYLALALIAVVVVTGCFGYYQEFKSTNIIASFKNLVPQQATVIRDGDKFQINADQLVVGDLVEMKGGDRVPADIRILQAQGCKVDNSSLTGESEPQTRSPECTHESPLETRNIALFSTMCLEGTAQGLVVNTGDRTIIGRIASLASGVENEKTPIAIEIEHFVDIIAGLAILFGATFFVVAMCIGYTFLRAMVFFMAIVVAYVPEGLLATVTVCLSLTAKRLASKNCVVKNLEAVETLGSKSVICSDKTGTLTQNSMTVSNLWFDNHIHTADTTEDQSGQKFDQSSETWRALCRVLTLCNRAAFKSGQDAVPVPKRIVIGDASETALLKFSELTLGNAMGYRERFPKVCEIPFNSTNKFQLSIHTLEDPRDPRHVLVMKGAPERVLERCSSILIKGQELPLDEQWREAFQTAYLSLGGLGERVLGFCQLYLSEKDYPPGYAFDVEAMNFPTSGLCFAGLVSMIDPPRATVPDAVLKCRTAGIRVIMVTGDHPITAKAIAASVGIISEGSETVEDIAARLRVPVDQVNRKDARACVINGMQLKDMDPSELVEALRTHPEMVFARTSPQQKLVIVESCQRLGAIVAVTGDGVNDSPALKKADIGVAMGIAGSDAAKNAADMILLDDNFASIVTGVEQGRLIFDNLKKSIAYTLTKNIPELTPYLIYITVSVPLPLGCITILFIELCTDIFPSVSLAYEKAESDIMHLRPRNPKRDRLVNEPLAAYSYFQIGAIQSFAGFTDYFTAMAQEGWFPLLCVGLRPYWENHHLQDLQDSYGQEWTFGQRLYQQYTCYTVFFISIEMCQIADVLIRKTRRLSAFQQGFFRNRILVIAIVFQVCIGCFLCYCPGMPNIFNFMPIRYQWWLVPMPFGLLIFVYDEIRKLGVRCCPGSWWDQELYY
# T1 sequence (P33704 whole entry partner): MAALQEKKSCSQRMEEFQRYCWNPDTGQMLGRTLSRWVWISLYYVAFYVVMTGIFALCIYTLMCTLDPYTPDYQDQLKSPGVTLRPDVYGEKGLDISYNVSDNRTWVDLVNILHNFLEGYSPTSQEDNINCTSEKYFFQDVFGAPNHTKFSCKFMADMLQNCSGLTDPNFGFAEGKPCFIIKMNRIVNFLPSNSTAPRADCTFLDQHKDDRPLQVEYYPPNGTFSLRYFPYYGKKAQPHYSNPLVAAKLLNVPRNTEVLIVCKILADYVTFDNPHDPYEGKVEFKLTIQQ
# Test: Inhibition of (H+/K+)-ATPase from canine gastric mucosa (inorganic phosphate release)
# Assay type: biochemical
# Conditions: canine gastric mucosa microsomes, pH 6.0, 30 min preincubation at 37° C.; read-out: (H+/K+)-ATPase IC50
# Method: Mongrel dogs weighing 15 to 25 kilograms were fasted for twenty-four hours, with water provided ad libitum. The animals were anesthetized with pentobarbital and the stomachs were removed. Subsequent tissue manipulations and subcellular fractionations were performed at 0° C. to 4° C. After the stomachs were cut open and rinsed with tap water, the antral and cardiac regions were removed and the remaining tissue was rinsed three times in saline. The glandular mucosa was removed mechanically, chopped finely in a medium containing 10 mM Tris hydrochloride (pH 7.4) and 250 mM sucrose, and homogenized. The homogenate was centrifuged at 20,000×g for twenty minutes and the pellet discarded. The supernatant was then centrifuged at 150,000×g for ninety minutes and the supernatant discarded. The pellet was resuspended in the Tris-HCl/sucrose medium by homogenization. Part (2 ml) of the resultant microsomal suspension was layered onto a step gradient consisting of 9 ml of 15% sucrose above 12 ml of 30% sucrose, each sucrose solution being buffered with 10 mM Tris hydrochloride (pH 7.4) containing 0.01% sodium azide. The microsomes retained at the 15%-30% sucrose interface, after centrifugation at 250,000×g for sixty minutes, were used as the source of (H^+/K^+)-ATPase. Microsomal preparations were lyophilized, a process that assured potassium ion permiability, and stored at −10° C. until used.
# (H^+/K^+)-ATPase activity for each test compound was determined, in duplicate, by measuring the release of inorganic phosphate, which was assayed according to the method of J. ChandraRajan and L. Klein, Anal. Biochem., 72 , 407 (1976). The (H^+/K^+)-ATPase assay medium consisted of 20 mm mes-Tris (pH 6.0), 5 mM magnesium chloride, 25 mM sucrose, and 4 mM Tris-ATP with or without 20 mM potassium chloride in a total volume of 2 ml. Microsomal suspensions (20 to 60 mcl, containing about 25 mcg protein) were added to the assay medium, without Tris-ATP, and then preincubated with a test compound for thirty minutes at 37° C. The assay was initiated by adding Tris-ATP and the mixture was incubated another thirty minutes at 37° C. A 200-mcl aliquot of the assay mixture was then added to 1.4 ml of a solution consisting of 0.1 M sodium acetate (pH 4.0) and 10% sodium dodecylsulfate, followed by the addition of 200 mcl each of 1% ammonium molybdate and 1% ascorbic acid. At least fifteen minutes later, the optical absorbance at 870 nm (which was proportional to inorganic phosphate concentration up to 100 nmoles per tube, as determined by a standard curve) was obtained. Enzyme activity was linear with incubation time.
# (H^+/K^+)-ATPase activity is represented by the difference between the measured activities in the presence of potassium-ion (K^+-stimulated) and in the absence of potassium ion (basal).
row,IC50 [µM],Structure (SMILES)
1,0.82,"Cc1ccc(C)c(C[S+]([O-])c2nc3ccccc3[nH]2)c1N (stereo not shown) [Example 55, 2-[(1H-Benzimidazol-2-ylsulfinyl)methyl]-3,6-dimethylbenzenamine monohydrate]"
2,5.3,"CCOc1ccc2[nH]c([S+]([O-])Cc3cc(C)ccc3N)nc2c1 (stereo not shown) [Example 61, 2-[[(5-Ethoxy-1H-benzimidazol-2-yl)sulfinyl]-methyl]-4-methylbenzenamine]"
3,1.5,Cc1ccc(C)c(C[S+]([O-])c2nc3cc(C(F)(F)F)ccc3[nH]2)c1N (stereo not shown) [Example 65]
4,8.5,COc1cccc(C[S+]([O-])c2nc3cc(C(F)(F)F)ccc3[nH]2)c1N (stereo not shown) [Example 67]
5,120,COc1cc2nc([S+]([O-])Cc3cc(C)ccc3N)[nH]c2cc1OC (stereo not shown) [Example 75]
6,2.2,"Cc1cccc2[nH]c([S+]([O-])Cc3cccc(N)n3)nc12 (stereo not shown) [Example 87, 6-[[(4-Methyl-1H-benzimidazol-2-yl)-sulfinyl]methyl]-2-pyridinamine]"
7,1.68,"Cc1ccc2[nH]c([S+]([O-])Cc3cccc(N)n3)nc2c1 (stereo not shown) [Example 89, 6-[[(5-Methyl-1H-benzimidazol-2-yl)-sulfinyl]methyl]-2-pyridinamine]"
8,6.9,"Nc1cccc(C[S+]([O-])c2nc3cc(Cl)ccc3[nH]2)n1 (stereo not shown) [Example 93, 6-[[(5-Chloro-1H-benzimidazol-2-yl)-sulfinyl]methyl]-2-pyridinamine]"
9,6.95,"Nc1cccc(C[S+]([O-])c2nc3cc(C(F)(F)F)ccc3[nH]2)n1 (stereo not shown) [Example 95, 6-[[[5-(Trifluoromethyl)-1H-benzimidazol-2-yl]sulfinyl]methyl]-2-pyridinamine]"
10,3.1,"CCOc1ccc2[nH]c([S+]([O-])Cc3cccc(N)n3)nc2c1 (stereo not shown) [Example 97, 6-[[(5-Ethoxy-1H-benzimidazol-2-yl)-sulfinyl]methyl]-2-pyridinamine]"
11,23.7,"COc1cc2nc([S+]([O-])Cc3cccc(N)n3)[nH]c2cc1OC (stereo not shown) [Example 99, 6-[[(5,6-Dimethoxy-1H-benzimidazol-2-yl)-sulfinyl]methyl]-2-pyridinamine ¼ hydrate]"
12,0.72,"Cc1cc2nc([S+]([O-])Cc3cccc(N)n3)[nH]c2cc1C (stereo not shown) [Example 101, 6-[[(5,6-Dimethyl-1H-benzimidazol-2-yl)-sulfinyl]methyl]-2-pyridinamine]"
13,1.8,"Cc1cc(C)c2nc([S+]([O-])Cc3cccc(N)n3)[nH]c2c1 (stereo not shown) [Example 103, 6-[[(4,6-Dimethyl-1H-benzimidazol-2-yl)-sulfinyl]methyl]-2-pyridinamine]"
14,9.5,"Nc1cccc(C[S+]([O-])c2nc3cc(CO)ccc3[nH]2)n1 (stereo not shown) [Example 105, 6-[[[5-(Hydroxymethyl)-1H-benzimidazol-2-yl]sulfinyl]methyl]-2-pyridinamine ¼ hydrate]"
15,9.1,"CC(C)(C)CNc1cccc(C[S+]([O-])c2nc3ccccc3[nH]2)n1 (stereo not shown) [Example 107, 6-[(1H-Benzimidazol-2-ylsulfinyl)methyl]-N-(2,2-dimethylpropyl)-2-pyridinamine ¼ hydrate]"
16,34.8,"Nc1ccc(C[S+]([O-])c2nc3ccccc3[nH]2)cn1 (stereo not shown) [Example 111, 5-[(1H-Benzimidazol-2-ylsulfinyl)methyl]-2-pyridinamine ¼ hydrate]"

row,Structure (SMILES),IC50 [µM]
1,"Cc1cc(C)c(N)c(C[S+]([O-])c2nc3ccccc3[nH]2)c1 (stereo not shown) [Example 30, 2-[(1H-Benzimidazol-2-ylsulfinyl)methyl]-4,6-dimethylbenzenamine hemihydrate]",0.85
2,"Cc1ccc2[nH]c([S+]([O-])Cc3ccc(C)c(C)c3N)nc2c1 (stereo not shown) [Example 63, 2-[[(5-Methyl-1H-benzimidazol-2-yl)sulfinyl]-methyl]-5,6-dimethylbenzenamine hemihydrate]",0.71
3,"Cc1cc(N)c(C[S+]([O-])c2nc3ccccc3[nH]2)c(C)c1C (stereo not shown) [Example 77, 2-[(1H-Benzimidazol-2-ylsulfinyl)methyl]-3,4,5-trimethylbenzenamine hemihydrate]",16
